Reference: patent publication US11298363B2, “Triazolobenzazepines as vasopressin V1a receptor antagonists” (RICHTER GEDEON NYRT., priority 2017, dated 2022)

Tests used:
[1] = biological target: T1, human vasopressin V1a receptor (Homo sapiens, UniProt P37288); test: Human vasopressin V1a receptor binding assay; conditions: 1321N1 cell membranes, [3H]vasopressin; read-out: Ki (nM) on hV1a cell line
Summary of the method: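 Ki values come from IC50 via Cheng-Prusoff (KD from prior Scatchard), averaged over at least two independent runs. Human V1a membranes were incubated with radioligand 60 minutes at 27° C., bound ligand collected by filtration; (Arg^8)-vasopressin at 1.2×10^−6 M defined non-specific binding.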

[2] = biological target: T1, human vasopressin V1a receptor; test: Functional assay on human vasopressin V1a receptor expressing cell line (intracellular Ca2+ fluorescence); assay type: cell-based; conditions: 1321N1 cells, (Arg8)-vasopressin at EC80; read-out: IC50 (nM) on hV1a cell line

T1 sequence (P37288 whole entry): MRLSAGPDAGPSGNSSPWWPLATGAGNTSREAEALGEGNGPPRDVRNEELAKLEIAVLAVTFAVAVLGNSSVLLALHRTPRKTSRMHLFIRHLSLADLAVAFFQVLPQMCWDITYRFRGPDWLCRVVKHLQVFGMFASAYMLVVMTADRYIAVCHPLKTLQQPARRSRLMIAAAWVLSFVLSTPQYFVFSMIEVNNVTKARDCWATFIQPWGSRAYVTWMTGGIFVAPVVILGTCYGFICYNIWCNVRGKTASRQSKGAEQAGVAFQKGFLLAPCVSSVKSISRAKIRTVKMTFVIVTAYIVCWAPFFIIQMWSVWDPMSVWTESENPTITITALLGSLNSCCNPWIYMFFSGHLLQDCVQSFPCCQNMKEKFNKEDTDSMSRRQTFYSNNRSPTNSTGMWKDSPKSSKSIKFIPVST

| Ki [1] [nM] | IC50 [2] [nM] | Compound |
| --- | --- | --- |
| 1.3 | 6.8 | N[C@@H]1Cc2cc(Cl)ccc2-n2c(nnc2[C@H]2CC[C@H](Oc3ccccn3)CC2)C1 [Example 8, (5R)-8-chloro-1-[trans-4-(pyridin-2-yloxy)cyclohexyl]-5,6-dihydro-4H-[1,2,4]triazolo[4,3-a][1]benzazepine-5-amine] |
| 0.8 | 3 | CC(=O)NC1Cc2cc(Cl)ccc2-n2c(nnc2[C@H]2CC[C@H](Oc3ccccn3)CC2)C1 (stereo partly drawn) [Example 9, N-{8-chloro-1-[trans-4-(pyridin-2-yloxy)cyclohexyl]-5,6-dihydro-4H-[1,2,4]triazolo[4,3-a][1]benzazepin-5-yl}acetamide] |
| 0.6 | 1.2 | O=C1Cc2cc(Cl)ccc2-n2c(nnc2[C@H]2CC[C@H](Oc3ccccn3)CC2)C1 [Example 54, 8-chloro-1-[trans-4-(pyrin-2-yloxy)cyclohexyl]-4H-[1,2,4]triazolo[4,3-a][1]benzazepin-5(6H)-one] |
| 0.3 | 1.1 | OC1Cc2cc(Cl)ccc2-n2c(nnc2[C@H]2CC[C@H](Oc3ccccn3)CC2)C1 (stereo partly drawn) [Example 55, 8-chloro-1-[trans-4-(pyridin-2-yloxy)cyclohexyl]-5,6-dihydro-4H-[1,2,4]triazolo[4,3-a][1]benzazepin-5-ol] |
| 0.3 | 1.8 | O[C@@H]1Cc2cc(Cl)ccc2-n2c(nnc2[C@H]2CC[C@H](Oc3ccccn3)CC2)C1 [Example 57, (5R)-8-chloro-1-[trans-4-(pyridin-2-yloxy)cyclohexyl]-5,6-dihydro-4H-[1,2,4]triazolo[4,3-a][1]benzazepin-5-ol] |
| 0.2 | 1.1 | Brc1ccc2c(c1)CC1(Cc3nnc([C@H]4CC[C@H](Oc5ccccn5)CC4)n3-2)OCCO1 [Example 62, 8′-bromo-1′-[trans-4-(pyridin-2-yloxy)cyclohexyl]-4′H,6′H-spiro[1,3-dioxolane-2,5′ [1,2,4]triazolo[4,3-a][1]benzazepine]] |
| 0.3 | 1.4 | c1ccc(O[C@H]2CC[C@H](c3nnc4n3-c3ccccc3CC3(C4)OCCO3)CC2)nc1 [Example 63, 1′-[trans-4-(pyridin-2-yloxy)cyclohexyl]-4′H,6′H-spiro[1,3-dioxolane-2,5′-[1,2,4]triazolo[4,3-a][1]benzazepine]] |
